Experimental data from patent EP2687213B1, “Solid forms comprising (+)-2-[1-(3-ethoxy-4-methoxyphenyl)-2-methylsulfonylethyl]-4-acetylaminoisoindoline-1,3-dione, compositions thereof, and uses thereof” (CELGENE CORPORATION, priority 2008, dated 2009).

Key:
Assay type in all cases: biochemical
Conditions in all cases: from PDE inhibition data of Table 1
[1] = biological target: PDE5 from human platelets (Homo sapiens, UniProt O76074); experiment: PDE5 enzyme assay
human PDE2 = human PDE2 (Homo sapiens, UniProt O00408); experiment: PDE2 enzyme assay
[2] = biological target: PDE7 purified from Hut78 human T cells (Homo sapiens, UniProt Q13946); experiment: PDE7 enzyme assay
Procedure: PDE7 is a cAMP-selective PDE expressed mainly in T cells and in skeletal muscle. T cell-derived cytokines such as IL-2 and IFN-γ are potentially regulatable via PDE7 inhibition. […] Compounds were tested against the PDE7 preparation in the presence of 10 nM cAMP as described for PDE4 in Table 1.

[3] = biological target: PDE3 from human platelets (Homo sapiens, UniProt Q14432); experiment: PDE3 enzyme assay
bovine PDE1 = experiment: PDE1 enzyme assay

Sequence of human PDE2 (O00408 whole entry): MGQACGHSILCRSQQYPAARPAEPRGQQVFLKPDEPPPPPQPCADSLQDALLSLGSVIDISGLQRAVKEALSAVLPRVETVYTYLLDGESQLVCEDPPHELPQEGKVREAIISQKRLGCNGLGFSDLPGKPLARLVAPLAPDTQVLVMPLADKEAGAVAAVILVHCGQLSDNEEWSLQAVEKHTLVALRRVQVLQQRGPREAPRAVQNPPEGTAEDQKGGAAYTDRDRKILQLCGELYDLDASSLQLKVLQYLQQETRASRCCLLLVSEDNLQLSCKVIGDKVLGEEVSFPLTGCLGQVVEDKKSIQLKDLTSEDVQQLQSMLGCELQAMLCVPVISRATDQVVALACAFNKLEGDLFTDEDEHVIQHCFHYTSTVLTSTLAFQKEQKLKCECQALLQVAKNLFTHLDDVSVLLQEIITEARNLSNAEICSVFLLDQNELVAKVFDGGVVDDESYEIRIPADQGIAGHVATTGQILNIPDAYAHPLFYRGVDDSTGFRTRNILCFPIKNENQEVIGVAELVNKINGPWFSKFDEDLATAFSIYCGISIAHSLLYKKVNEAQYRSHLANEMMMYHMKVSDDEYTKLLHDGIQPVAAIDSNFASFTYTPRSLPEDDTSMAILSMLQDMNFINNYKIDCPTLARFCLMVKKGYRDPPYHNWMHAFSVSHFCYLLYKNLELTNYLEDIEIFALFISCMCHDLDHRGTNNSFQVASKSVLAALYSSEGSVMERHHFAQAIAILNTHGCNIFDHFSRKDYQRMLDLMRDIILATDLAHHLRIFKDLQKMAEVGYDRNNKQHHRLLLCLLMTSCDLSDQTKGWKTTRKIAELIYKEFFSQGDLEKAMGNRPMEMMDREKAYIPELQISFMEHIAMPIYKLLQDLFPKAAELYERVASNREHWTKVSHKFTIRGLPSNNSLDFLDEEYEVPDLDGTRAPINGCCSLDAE
Sequence of PDE7 purified from Hut78 human T cells (Q13946 whole entry): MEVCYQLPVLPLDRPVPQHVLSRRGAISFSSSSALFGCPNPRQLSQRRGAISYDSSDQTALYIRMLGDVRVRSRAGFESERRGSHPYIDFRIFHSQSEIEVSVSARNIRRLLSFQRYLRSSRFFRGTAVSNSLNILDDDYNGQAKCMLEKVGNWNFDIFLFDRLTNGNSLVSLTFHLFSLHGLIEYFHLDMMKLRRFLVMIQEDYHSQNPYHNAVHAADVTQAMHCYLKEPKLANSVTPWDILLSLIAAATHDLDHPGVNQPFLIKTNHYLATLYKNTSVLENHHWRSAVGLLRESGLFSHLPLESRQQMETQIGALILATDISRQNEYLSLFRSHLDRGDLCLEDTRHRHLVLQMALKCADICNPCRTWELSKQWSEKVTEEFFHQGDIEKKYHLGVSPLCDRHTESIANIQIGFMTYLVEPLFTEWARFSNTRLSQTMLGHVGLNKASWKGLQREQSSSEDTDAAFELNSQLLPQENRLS
Sequence of PDE3 from human platelets (Q14432 whole entry): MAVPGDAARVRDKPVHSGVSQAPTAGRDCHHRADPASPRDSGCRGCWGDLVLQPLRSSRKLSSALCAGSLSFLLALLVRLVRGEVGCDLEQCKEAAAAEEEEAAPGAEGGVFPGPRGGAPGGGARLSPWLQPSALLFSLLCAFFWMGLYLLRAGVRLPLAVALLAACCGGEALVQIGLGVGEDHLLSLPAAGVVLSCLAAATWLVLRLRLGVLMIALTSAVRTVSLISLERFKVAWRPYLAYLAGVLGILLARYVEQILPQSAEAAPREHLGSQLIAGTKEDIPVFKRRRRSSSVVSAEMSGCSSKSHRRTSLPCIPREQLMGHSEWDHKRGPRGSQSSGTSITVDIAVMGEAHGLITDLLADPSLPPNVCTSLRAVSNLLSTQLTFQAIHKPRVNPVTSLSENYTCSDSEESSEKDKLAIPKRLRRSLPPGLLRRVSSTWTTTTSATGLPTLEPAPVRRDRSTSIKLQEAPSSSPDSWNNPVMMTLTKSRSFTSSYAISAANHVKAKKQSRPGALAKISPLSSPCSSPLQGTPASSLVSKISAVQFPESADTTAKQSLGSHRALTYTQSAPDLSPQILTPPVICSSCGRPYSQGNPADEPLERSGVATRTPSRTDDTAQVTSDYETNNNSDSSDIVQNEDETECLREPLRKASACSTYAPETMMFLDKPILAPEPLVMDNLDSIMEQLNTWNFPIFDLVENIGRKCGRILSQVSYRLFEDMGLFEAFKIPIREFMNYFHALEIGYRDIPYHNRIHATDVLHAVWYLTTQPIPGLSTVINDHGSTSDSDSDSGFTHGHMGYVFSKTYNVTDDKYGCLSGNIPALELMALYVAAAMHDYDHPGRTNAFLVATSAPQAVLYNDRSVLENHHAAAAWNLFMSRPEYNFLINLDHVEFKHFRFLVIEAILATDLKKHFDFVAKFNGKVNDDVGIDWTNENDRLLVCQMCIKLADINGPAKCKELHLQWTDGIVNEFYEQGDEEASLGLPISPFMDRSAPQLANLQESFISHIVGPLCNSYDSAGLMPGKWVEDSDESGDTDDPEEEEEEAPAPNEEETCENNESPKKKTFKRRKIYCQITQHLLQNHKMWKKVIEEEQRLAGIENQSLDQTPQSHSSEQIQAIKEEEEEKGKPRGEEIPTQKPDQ

## CCOc1cc(C(CS(C)(=O)=O)N2C(=O)c3cccc(NC(C)=O)c3C2=O)ccc1OC (racemic) [Racemic Compound, 2-[1-(3-Ethoxy-4-methoxyphenyl)-2-methylsulfonylethyl]-4-acetylaminoisoindoline-1,3-dione]
[1]
  PDE Specificity Ratio PDE4/PDE5: >12000 fold
Human PDE2
  PDE Specificity Ratio PDE4/PDE2: >800 fold
[2]
  PDE Specificity Ratio PDE7 IC50/PDE4 IC50: 270 fold
[3]
  PDE Specificity Ratio PDE4/PDE3: >670 fold
Bovine PDE1
  PDE Specificity Ratio PDE4/PDE1: >2700 fold
